In patent US20260207654A1, “HEPARAN SULFATE AND ITS MIMETICS AS CHEMOKINE INHIBITORS” (INDIAN INSTITUTE OF SCIENCE EDUCATION AND RESEARCH, priority 2021, published 2026):

How the values were obtained:
CCL5 [1] = biological target: T1, CCL5 (Homo sapiens, UniProt P13501); test: Surface Plasmon Resonance (SPR) binding kinetics; details: compound immobilized on CM5 chip, 25° C., 1:1 model
T1 sequence (P13501 24-91): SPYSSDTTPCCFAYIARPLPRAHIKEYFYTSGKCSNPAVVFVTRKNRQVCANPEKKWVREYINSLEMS
Method: (§1) FIG. 1: SPR analysis of chemokines binding profile for the compounds of present invention: SPR binding analysis of the interaction between the examples 12, 17, and 19, chemokines were reported, Concentrations of chemokines were 0.05-2 μM. A global fit according to a 1:1 binding model was applied (black curves).
(§2) Surface Plasmon Resonance (SPR) binding kinetics The compound of present invention (test compound, Example 12) was covalently immobilized on sensor chip via coupling reaction. At first, the dextran matrix on CM5 chip was activated with NHS (0.02 M) and EDC coupling reagent (0.2 M) at a flow rate of 5 μL min^−1 for 15 min before activating with 50 μL of test compound (0.5 mM) in HBS-EP buffer. In the negative control cell after EDC and NHS activation, 0.5 mM of ethanol amine solution was flowed. The positive RU response on test compound confirmed immobilization of the HS ligand on CM5 chips. Then, different chemokines at a flow rate of 50 μL/min and 25° C. in HBS-EP buffer without growth factor was then flowed over the sensor surface for 3 min to enable association/dissociation. Kinetic analysis was performed using the BIA evaluation software for T100. Association and dissociation phase data were globally fitted to a simple 1:1 interaction model.
(§3) Table 2: SPR analysis of kinetic rate constants and equilibrium affinities of compounds of present invention binding to chemokines
as §2, with “The” for “Surface Plasmon Resonance (SPR) binding kinetics The”, “12, 17 & 18)” for “12)”

CCL2 [2] = biological target: T2, CCL2 (Homo sapiens, UniProt P13500); test: Surface Plasmon Resonance (SPR) binding kinetics; details: compound immobilized on CM5 chip, 25° C., 1:1 model
T2 sequence (P13500 24-99, species assumed): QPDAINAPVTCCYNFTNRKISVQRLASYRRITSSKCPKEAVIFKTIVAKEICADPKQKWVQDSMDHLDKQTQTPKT
Method: as §1, §2, §3
as §2, with “The” for “Surface Plasmon Resonance (SPR) binding kinetics The”, “12, 17 & 18)” for “12)”

CXCL10 [3] = biological target: T3, CXCL10 (Homo sapiens, UniProt P02778); test: Surface Plasmon Resonance (SPR) binding kinetics; details: compound immobilized on CM5 chip, 25° C., 1:1 model
T3 sequence (P02778 22-98): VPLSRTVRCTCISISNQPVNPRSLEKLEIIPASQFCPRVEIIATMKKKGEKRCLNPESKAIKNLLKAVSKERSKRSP
Method: as §1, §2, §3
as §2, with “The” for “Surface Plasmon Resonance (SPR) binding kinetics The”, “12, 17 & 18)” for “12)”

CXCL8 [4] = biological target: T4, CXCL8 (Homo sapiens, UniProt P10145); test: Surface Plasmon Resonance (SPR) binding kinetics; details: compound immobilized on CM5 chip, 25° C., 1:1 model
T4 sequence (P10145 21-99): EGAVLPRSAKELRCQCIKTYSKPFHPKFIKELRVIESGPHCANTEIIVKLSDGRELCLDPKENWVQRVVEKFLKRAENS
Method: as §1, §2, §3
as §2, with “The” for “Surface Plasmon Resonance (SPR) binding kinetics The”, “12, 17 & 18)” for “12)”

CCL7 [5] = biological target: T5, CCL7 (Homo sapiens, UniProt P80098); test: Surface Plasmon Resonance (SPR) binding kinetics; details: compound immobilized on CM5 chip, 25° C., 1:1 model
T5 sequence (P80098 24-99, species assumed): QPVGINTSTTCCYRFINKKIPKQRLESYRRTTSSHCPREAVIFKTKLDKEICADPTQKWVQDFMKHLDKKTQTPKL
Method: as §1, §2, §3
as §2, with “The” for “Surface Plasmon Resonance (SPR) binding kinetics The”, “12, 17 & 18)” for “12)”

CXCL12 [6] = biological target: T6, CXCL12 (Homo sapiens, UniProt P48061); test: Chemokine glycan microarray binding assay; details: maximum RFU set as 100% binding, average across 2 glycan concentrations and 3 chemokine dilutions (n=6)
T6 sequence (P48061 22-93, species assumed): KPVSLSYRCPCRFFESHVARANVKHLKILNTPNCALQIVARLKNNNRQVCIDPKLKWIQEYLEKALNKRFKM
In short: (§4)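 Ranking data come from glycan microarrays probed with chemokines at three dilutions and detected by Cy3 fluorescence. Per block, the strongest signal set 100% binding, and average rank with SEM was calculated for every glycan.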

CCL21 = biological target: T7, CCL21 (Homo sapiens, UniProt O00585); test: Chemokine glycan microarray binding assay; details: maximum RFU set as 100% binding, average across 2 glycan concentrations and 3 chemokine dilutions (n=6)
T7 sequence (O00585 24-134): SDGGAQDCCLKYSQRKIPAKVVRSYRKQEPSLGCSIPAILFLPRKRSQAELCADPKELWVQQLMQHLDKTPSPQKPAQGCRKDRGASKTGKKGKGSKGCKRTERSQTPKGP
In short: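 Epoxy-slide glycan array; block: PBS pH 7.3 + 1% ovalbumin, 1 h RT. Chemokine, 3 serial dilutions, 2 h RT; biotin-secondary Ab 1 μg/mL → Cy3-SA; fluorescence scan. Max RFU per block = 100%, others ranked; mean rank ± SEM over dilutions.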

CCL5 [7] = biological target: T1, CCL5; test: Chemokine glycan microarray binding assay; details: maximum RFU set as 100% binding, average across 2 glycan concentrations and 3 chemokine dilutions (n=6)
In short: as §4

CCL2 [8] = biological target: T2, CCL2; test: Chemokine glycan microarray binding assay; details: maximum RFU set as 100% binding, average across 2 glycan concentrations and 3 chemokine dilutions (n=6)
In short: as §4

CXCL10 [9] = biological target: T3, CXCL10; test: Chemokine glycan microarray binding assay; details: maximum RFU set as 100% binding, average across 2 glycan concentrations and 3 chemokine dilutions (n=6)
In short: as §4

CXCL8 [10] = biological target: T4, CXCL8; test: Chemokine glycan microarray binding assay; details: maximum RFU set as 100% binding, average across 2 glycan concentrations and 3 chemokine dilutions (n=6)
In short: as §4

CCL7 [11] = biological target: T5, CCL7; test: Chemokine glycan microarray binding assay; details: maximum RFU set as 100% binding, average across 2 glycan concentrations and 3 chemokine dilutions (n=6)
In short: as §4

CCL13 = CCL13 (Homo sapiens, UniProt Q99616); test: Chemokine glycan microarray binding assay; details: maximum RFU set as 100% binding, average across 2 glycan concentrations and 3 chemokine dilutions (n=6)
Chain of CCL13 (Q99616 17-98, species assumed): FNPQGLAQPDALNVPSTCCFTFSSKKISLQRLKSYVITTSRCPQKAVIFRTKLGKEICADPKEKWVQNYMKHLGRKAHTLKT
In short: as §4

CCL28 = biological target: T8, CCL28 (Homo sapiens, UniProt Q9NRJ3); test: Chemokine glycan microarray binding assay; details: maximum RFU set as 100% binding, average across 2 glycan concentrations and 3 chemokine dilutions (n=6)
T8 sequence (Q9NRJ3 20-127): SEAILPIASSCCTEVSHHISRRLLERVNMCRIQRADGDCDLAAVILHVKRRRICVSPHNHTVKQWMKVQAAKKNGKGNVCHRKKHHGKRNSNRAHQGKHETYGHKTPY
In short: as §4

CXCL12 [12] = biological target: T6, CXCL12; test: Surface Plasmon Resonance (SPR) binding kinetics; details: compound immobilized on CM5 chip, 25° C., 1:1 model
Method: as §1, §2, §3
as §2, with “The” for “Surface Plasmon Resonance (SPR) binding kinetics The”, “12, 17 & 18)” for “12)”

SMILES	Koff (CCL5 [1])	Kon (CCL5 [1])	Kd (CCL2 [2]) [µM]	Koff (CCL2 [2])	Kon (CCL2 [2])	Kd (CXCL10 [3]) [µM]	Koff (CXCL10 [3])	Kon (CXCL10 [3])	Kd (CXCL8 [4]) [µM]	Koff (CXCL8 [4])	Kon (CXCL8 [4])	mean rank binding to CXCL12 (CXCL12 [6]) [%]	mean rank binding to CCL21 (CCL21) [%]	mean rank binding to CCL5 (CCL5 [7]) [%]	mean rank binding to CCL2 (CCL2 [8]) [%]	mean rank binding to CXCL10 (CXCL10 [9]) [%]	mean rank binding to CXCL8 (CXCL8 [10]) [%]	mean rank binding to CCL7 (CCL7 [11]) [%]	mean rank binding to CCL13 (CCL13) [%]	mean rank binding to CCL28 (CCL28) [%]	other results
NCCCO[C@@H]1OC(C(=O)O)[C@@H](O[C@H]2OC(COS(=O)(=O)O)[C@@H](O[C@@H]3OC(C(=O)O)[C@@H](O[C@H]4OC(COS(=O)(=O)O)[C@@H](O)C(O)C4N)C(O)C3OS(=O)(=O)O)C(O)C2N)C(O)C1OS(=O)(=O)O (stereo partly drawn) [Example 19, 3-Aminopropyl-O-[(2-amino-6-O-sulfonato-2-deoxy-α-D-glucopyranosyl)-(1→4)-O-(2-O-sulfonato-α-L-idopyranosyluronate)-(1→4)-O-(2-amino-6-O-sulfonato-2-deoxy-α-D-glucopyranosyl)]-(1→4)-O-2-O-sulfonato-α-L-idopyranosiduronate]	2.14 ± 0.48 × 10^−1 S^−1	9.15 ± 0.34 × 10^4 M^−1S^−1	9.82 ± 0.18	2.03 ± 0.17 × 10^−1 S^−1	2.07 ± 0.13 × 10^4 M^−1S^−1	10.7 ± 0.37	2.24 ± 0.35 × 10^−1 S^−1	2.07 ± 0.26 × 10^4 M^−1S^−1	15.9 ± 0.23	1.96 ± 0.29 × 10^−1 S^−1	1.23 ± 0.17 × 10^4 M^−1S^−1	79	66	95	80	89	79	91	74	79	Kd (CCL7 [5]): 11.5 ± 0.17 µM; Koff (CCL7 [5]): 2.25 ± 0.29 × 10^−1 S^−1; Kon (CCL7 [5]): 1.96 ± 0.22 × 10^4 M^−1S^−1
NCCOCCO[C@@H]1O[C@@H](C(=O)O)[C@@H](O[C@@H]2O[C@@H](C(=O)O)[C@@H](O[C@@H]3O[C@@H](C(=O)O)[C@@H](O[C@@H]4O[C@@H](C(=O)O)[C@@H](OS(=O)(=O)O)[C@H](O)[C@H]4OS(=O)(=O)O)[C@H](O)[C@H]3OS(=O)(=O)O)[C@H](O)[C@H]2OS(=O)(=O)O)[C@H](O)[C@H]1OS(=O)(=O)O [Example 12, Ethoxy-2-aminoethoxyl-O-((2-4-O-disulfonato)-α-L-idopyranosyl Uronic Acid-α(1->4)(2-O-sulfonato)-α-L-idopyranosyl Uronic Acid-α(1→4)(2-O-sulfonato)-α-L-idopyranosyl Uronic Acid-α(1→4)(2-O-sulfonato))-α-L-idopyranoside Uronic Acid]	2.4 ± 0.38 × 10^−1 S^−1	4.2 ± 0.46 × 10^4 M^−1S^−1	1.67 ± 0.3	2.1 ± 0.5 × 10^−1 S^−1	1.26 ± 0.08 × 10^5 M^−1S^−1	15.3 ± 0.21	2.2 ± 0.38 × 10^−1 S^−1	1.44 ± 0.46 × 10^4 M^−1S^−1	9.34 ± 0.21	2.96 ± 0.1 × 10^−1 S^−1	3.16 ± 0.08 × 10^5 M^−1S^−1	91	50	91	88	87	96	80	70	72	Kd (CXCL12 [12]): 18.8 ± 0.44 µM; Koff (CXCL12 [12]): 2.1 ± 0.78 × 10^−1 S^−1; Kon (CXCL12 [12]): 1.1 ± 0.46 × 10^4 M^−1S^−1; Kd (CCL5 [1]): 5.72 ± 0.24 µM
NCCCO[C@@H]1O[C@@H](C(=O)O)[C@@H](O[C@H]2O[C@H](COS(=O)(=O)O)[C@@H](O[C@@H]3O[C@@H](C(=O)O)[C@@H](O[C@H]4O[C@H](COS(=O)(=O)O)[C@@H](O)[C@H](OS(=O)(=O)O)[C@H]4N)[C@H](O)[C@H]3O)[C@H](OS(=O)(=O)O)[C@H]2N)[C@H](O)[C@H]1O [Example 17, 3-Aminopropyl-O-[(2-amino-6-O-sulfonato-3-O-sulfonato-2-deoxy-α-D-glucopyranosyl)-(1→4)-O-(α-L-idopyranosyluronate)-(1→4)-O-(2-amino-6-O-sulfonato-3-O-sulfonato-2-deoxy-α-D-glucopyranosyl)]-(1→4)-O-α-L-idopyranosiduronate]	2.98 ± 0.31 × 10^−1 S^−1	4.37 ± 0.31 × 10^4 M^−1S^−1	–	2.11 ± 0.34 × 10^−1 S^−1	11.17 ± 0.32 × 10^4 M^−1S^−1	11 ± 0.37	1.69 ± 0.33 × 10^−1 S^−1	1.53 ± 0.26 × 10^4 M^−1S^−1	11.7 ± 0.17	2.18 ± 0.28 × 10^−1 S^−1	1.87 ± 0.22 × 10^4 M^−1S^−1	80	73	82	95	96	94	89	69	54	Kd (CCL5 [1]): 6.81 ± 0.33 µM; Kd (CCL7 [5]): 11.3 ± 0.18 µM; Koff (CCL7 [5]): 2.86 ± 0.21 × 10^−1 S^−1; Kon (CCL7 [5]): 2.53 ± 0.15 × 10^4 M^−1S^−1
NCCOCCO[C@@H]1OC(C(=O)O)[C@@H](O[C@@H]2OC(C(=O)O)[C@@H](O)C(O)C2O)C(O)C1O (stereo partly drawn) [Example 4, Ethoxy-2-aminoethoxyl-O-(α-L-idopyranosyl Uronic Acid-α(1→4))-α-L-idopyranosyl Uronic Acid]	–	–	–	–	–	–	–	–	–	–	–	56	48	2	2	44	12	33	67	56	–
